Results reported in publication PMC2692627 (Molecular microbiology, 2009).

Columns and labels:
[1] = molecular target: recombinant Leishmania DHCH1 (Leishmania major, UniProt Q4Q9F9); assay: Inhibition of dehydrogenase; assay type: biochemical; conditions: for Inhibition of L. major DHCH1: tested at 50 μM, data not shown
[2] = molecular target: Leishmania DHFR-TS (Leishmania major, UniProt P07382); assay: DHFR activity of the bifunctional L. major DHFR-TS; assay type: biochemical; conditions: 100 μM; data not shown
Leishmania DHFR-TS, sequence (P07382 whole entry): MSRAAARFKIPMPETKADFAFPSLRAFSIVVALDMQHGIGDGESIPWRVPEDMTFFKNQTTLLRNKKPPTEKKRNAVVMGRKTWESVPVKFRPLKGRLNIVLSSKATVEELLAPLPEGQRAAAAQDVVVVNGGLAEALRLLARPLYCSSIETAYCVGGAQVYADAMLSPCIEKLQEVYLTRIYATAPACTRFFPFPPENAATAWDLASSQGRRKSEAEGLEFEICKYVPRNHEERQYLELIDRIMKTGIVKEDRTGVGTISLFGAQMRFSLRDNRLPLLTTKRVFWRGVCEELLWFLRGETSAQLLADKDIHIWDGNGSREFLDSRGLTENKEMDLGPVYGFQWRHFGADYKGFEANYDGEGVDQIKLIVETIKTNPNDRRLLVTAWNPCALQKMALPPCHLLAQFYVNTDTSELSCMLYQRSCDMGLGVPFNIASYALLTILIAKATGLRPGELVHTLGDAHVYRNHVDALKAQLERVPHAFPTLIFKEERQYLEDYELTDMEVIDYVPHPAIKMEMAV

[3] = test system: L. major FV1 promastigotes WT; assay: Promastigote growth inhibition, WT line; assay type: cell-based; conditions: Leishmania major, read-out: EC50 growth
[4] = test system: L. major FV1 promastigotes dhch1^−/pXNG4-DHCH1; assay: microbe, parasite or virus in culture; assay type: cell-based, Leishmania major; conditions: for EC50: Leishmania major, read-out: EC50 growth; for Resistance of DHCH1 or FTL overexpressors: DHCH1 or FTL overexpressors vs WT
[5] = test system: L. major FV1 promastigotes dhch1^−/pXNG4-FTL; assay: Promastigote growth inhibition, dhch1−/pXNG4-FTL line; assay type: cell-based; conditions: Leishmania major, read-out: EC50 growth
[6] = test system: L. major FV1 promastigotes WT/pXNG4-DHCH1; assay: Promastigote growth inhibition, WT/pXNG4-DHCH1 line; assay type: cell-based; conditions: Leishmania major, read-out: EC50 growth
[7] = test system: L. major FV1 promastigotes WT/pXNG4-FTL; assay: Promastigote growth inhibition, WT/pXNG4-FTL line; assay type: cell-based; conditions: Leishmania major, read-out: EC50 growth
[8] = test system: host cell (macrophages); assay: Host cell toxicity in the amastigote/macrophage test; assay type: cell-based; conditions: macrophage host cells; preliminary studies, unpublished data
[9] = molecular target: human DHFR; conditions: read-out: Ki, human DHFR; ref Temple et al., 1982; cited from earlier work
[10] = test system: FTL; conditions: 100 μM; ref Vickers et al., 2008; cited from earlier work
[11] = molecular target: T1, recombinant Leishmania major DHCH1 (Leishmania major, UniProt Q4Q9F9); assay: Kinetic constants of the dehydrogenase reaction of recombinant L. major DHCH1; assay type: biochemical; conditions: limit of detection 0.3 μmol min^−1 mg^−1; also with 5 mM (K+)PO4 and 5 mM MgCl2
T1 sequence (Q4Q9F9 1-298): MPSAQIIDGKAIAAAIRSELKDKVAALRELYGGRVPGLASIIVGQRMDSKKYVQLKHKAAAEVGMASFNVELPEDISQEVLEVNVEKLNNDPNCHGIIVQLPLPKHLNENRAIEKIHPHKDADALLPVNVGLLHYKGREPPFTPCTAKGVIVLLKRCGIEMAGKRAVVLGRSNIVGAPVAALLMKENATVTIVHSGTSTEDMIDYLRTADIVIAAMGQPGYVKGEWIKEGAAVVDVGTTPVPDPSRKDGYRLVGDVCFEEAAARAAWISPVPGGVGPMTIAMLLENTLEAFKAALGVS

SMILES | EC50 [3] [nM] | EC50 [4] [nM] | EC50 [5] [nM] | Inhibition of L. major DHCH1 [1] | Resistance of DHCH1 or FTL overexpressors [4] | further results
Nc1nc(O)c2c(n1)NC[C@@H]1CN(c3ccc(C(=O)N[C@@H](CCC(=O)O)C(=O)O)cc3)C(=O)N21 [5,10-CO-THF, (2S)-2-[[4-[(6aR)-3-amino-1,9-dioxo-5,6,6a,7-tetrahydro-4H-imidazo[3,4-f]pteridin-8-yl]benzoyl]amino]pentanedioic acid] | 1100 ± 40 | 4500 ± 500 | 3300 ± 300 | – | – | Ki [1]: 105 nM; Inhibition of the activity of Leishmania DHFR-TS [2]: did not inhibit; EC50 [6]: 5.1 ± 0.8 µM; EC50 [7]: 3.7 ± 0.5 µM; Concentration above which host cell toxicity was seen [8]: above 10 μM; Ki [9]: > 100 µM; Inhibition of the activity of FTL [10]: did not inhibit
NC(=O)c1ccc[n+]([C@@H]2O[C@H](COP(=O)([O-])OP(=O)(O)OC[C@H]3O[C@@H](n4cnc5c(N)ncnc54)[C@H](O)[C@@H]3O)[C@@H](O)[C@H]2O)c1 [NAD^+] | – | – | – | – | – | Dehydrogenase activity with the coenzyme [11]: no activity detected
CN(Cc1cnc2nc(N)nc(N)c2n1)c1ccc(C(=O)N[C@@H](CCC(=O)O)C(=O)O)cc1 [Methotrexate] | 36 ± 1 | 41 ± 2 | 40 ± 2 | not inhibited | did not show resistance | –
Nc1nc(N)c(CCCc2ccccc2)c(Cc2ccccc2)n1 [Compound 70, 2,4-diamino-6-benzyl-5-(3-phenylpropyl)-pyrimidine] | 440 ± 50 | 400 ± 50 | 420 ± 40 | not inhibited | did not show resistance | –
CC(C)c1nc2nc(N)nc(N)c2nc1C(C)C [Compound 25, 2,4-Diamino-6,7-diisopropylpteridine] | – | – | – | not inhibited | – | –
Nc1nc(N)c2cc(Oc3ccc(Cl)c(Cl)c3)ccc2n1 [Compound 34, 2,4-diamino-6-(3,4-dichlorophenoxy)-quinazoline] | 680 ± 90 | 760 ± 80 | 540 ± 60 | not inhibited | did not show resistance | –
